Source: ChEMBL document CHEMBL4431387, “Anti-adipogenic and anti-diabetic effects of cis-3',4'-diisovalerylkhellactone isolated from Peucedanum japonicum Thunb leaves in vitro” (Bioorg Med Chem Lett, 2016)
Calls of active or inactive are those of the source. The calls are words filed in the database; no cut-off is given here.

How the values were obtained:
[1] = target: T1, 5'-AMP-activated protein kinase (Mus musculus) (UniProt Q5EG47+Q8BRK8+Q6PAM0+O54950+Q91WG5+Q9R078+Q8BGM7); test: Induction of AMPK phosphorylation in mouse 3T3L1 cells at 50 uM by SDS-PAGE analysis; type: cell-based; conditions: 3T3-L1
3T3-L1 [2] = test: Antiadipogenic activity in differentiated mouse 3T3L1 cells assessed as reduction in triglyceride levels at 50 uM after 8 days by oil red o-staining based spectrophotometric analysis relative to control; type: functional; parameters: scale not given: the % may be the effect or the level left
3T3-L1 [3] = test: Induction of glucose uptake in differentiated mouse 3T3L1 cells at 50 uM preincubated for 20 mins followed by 2-deoxyglucose addition measured after 20 mins by fluorescence assay relative to control; type: functional
3T3-L1 [4] = test: Antiadipogenic activity in mouse 3T3L1 cells assessed as suppression of adipocyte differentiation at 30 uM after 8 days by oil red o-staining based spectrophotometric analysis; type: functional
3T3-L1 [5] = test: Downregulation of C/EBPalpha mRNA expression in mouse 3T3L1 cells by qRT-PCR analysis; type: functional, cell-based
3T3-L1 [6] = test: Downregulation of C/EBPalpha protein expression in mouse 3T3L1 cells by SDS-PAGE analysis; type: functional, cell-based
3T3-L1 [7] = test: Antiadipogenic activity in differentiated mouse 3T3L1 cells assessed as reduction in triglyceride levels at 30 uM after 8 days by oil red o-staining based spectrophotometric analysis relative to control; type: functional; parameters: scale not given: the % may be the effect or the level left
3T3-L1 [8] = test: Downregulation of SREBP-1c mRNA expression in mouse 3T3L1 cells by qRT-PCR analysis; type: functional, cell-based
3T3-L1 [9] = test: Antiadipogenic activity in mouse 3T3L1 cells assessed as suppression of adipocyte differentiation after 8 days by oil red o-staining based spectrophotometric analysis; type: functional, cell-based
3T3-L1 [10] = test: Downregulation of SREBP-1c protein expression in mouse 3T3L1 cells by SDS-PAGE analysis; type: functional, cell-based
3T3-L1 [11] = test: Antiadipogenic activity in mouse 3T3L1 cells assessed as suppression of adipocyte differentiation at 50 uM after 8 days by oil red o-staining based spectrophotometric analysis; type: functional
3T3-L1 [12] = test: Cytotoxicity against mouse 3T3L1 cells assessed as reduction in cell viability at =<50 uM after 48 hrs by SRB assay; type: cell-based; conditions: 3t3-l1, 48 h
3T3-L1 [13] = test: Downregulation of PPARgamma protein expression in mouse 3T3L1 cells by SDS-PAGE analysis; type: functional, cell-based
[14] = target: Alpha glucosidase (Homo sapiens) (UniProt O43451+P10253+P14410+Q2M2H8); test: Inhibition of alpha-glucosidase (unknown origin) using […]-alpha-D-glucopyranoside as substrate at 10 to 50 uM preincubated for 10 mins followed by substrate addition measured after 5 mins; type: protein assay
3T3-L1 [15] = test: Cytotoxicity against mouse 3T3L1 cells assessed as reduction in cell viability at 10 to 50 uM after 48 hrs by SRB assay; type: cell-based; conditions: 3t3-l1, 48 h
3T3-L1 [16] = test: Downregulation of PPARgamma mRNA expression in mouse 3T3L1 cells by qRT-PCR analysis; type: functional, cell-based
3T3-L1 [17] = test: Induction of glucose uptake in differentiated mouse 3T3L1 cells at 30 uM preincubated for 20 mins followed by 2-deoxyglucose addition measured after 20 mins by fluorescence assay relative to control; type: functional
[18] = target: T1, 5'-AMP-activated protein kinase (Mus musculus); test: Induction of AMPK phosphorylation in mouse 3T3L1 cells at 30 uM by SDS-PAGE analysis; type: cell-based; conditions: 3T3-L1
3T3-L1 [19] = test: Antiadipogenic activity in mouse 3T3L1 cells assessed as suppression of adipocyte differentiation at 20 uM after 8 days by oil red o-staining based spectrophotometric analysis; type: functional
3T3-L1 [20] = test: Antiadipogenic activity in differentiated mouse 3T3L1 cells assessed as reduction in triglyceride levels at 20 uM after 8 days by oil red o-staining based spectrophotometric analysis relative to control; type: functional; parameters: scale not given: the % may be the effect or the level left

CC(C)CC(=O)O[C@@H]1c2c(ccc3ccc(=O)oc23)OC(C)(C)[C@@H]1OC(=O)CC(C)C (relative stereo)
Activity [1]: 103%
Activity (3T3-L1 [2]): 65%
Activity (3T3-L1 [3]): 57%
Activity (3T3-L1 [4]): 71%
Activity (3T3-L1 [5]): Dose-dependent effect
Activity (3T3-L1 [6]): Dose-dependent effect
Activity (3T3-L1 [7]): 67%
Activity (3T3-L1 [8]): Dose-dependent effect
Activity (3T3-L1 [9]): Active
Activity (3T3-L1 [10]): Dose-dependent effect
Activity (3T3-L1 [11]): 80%
Activity (3T3-L1 [12]): Non-Toxic
Activity (3T3-L1 [13]): Dose-dependent effect
inhibition [14]: Active
Activity (3T3-L1 [15]): Non-Toxic
Activity (3T3-L1 [16]): Dose-dependent effect
Activity (3T3-L1 [17]): 43%
Activity [18]: 72%
Activity (3T3-L1 [19]): 33%
Activity (3T3-L1 [20]): 44%
